In PubChem BioAssay AID212 (DTP/NCI, 2004) one finds T/C data, which are given here for 17 compounds.

Several values for one entry are separate records, joined by “and”; a condition that tells them apart may be missing. Identical values can stand only once. Records with an inconclusive call do not appear. Where a SMILES comes first, the peptide text is derived from it. The star is where a group is joined. Trt = c1ccc(C(c2ccccc2)(c2ccccc2)*)cc1; Cbz = O=C(OCc1ccccc1)*

For the assay, the system named is BDF1 mice, colon carcinoma 38 sc, T/C %. Description: NCI In Vivo Anticancer Drug Screen. Data for tumor model Colon Carcinoma 38 (subcutaneous) in B6D2F1 (BDF1) mice. The conditions noted are these: endpoint: median tumor weight (est.), higher = larger tumour. The method, boiled down: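 T/C readout: treated group (T) measurement over vehicle control group (C) measurement. Endpoint is survival or tumor size in mice bearing a transplanted tumor.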

The mark [1] stands for this setting: dose: 6.25 mg/kg/injection, schedule: Q07DX002 (ip), vehicle: Klucel (hydroxypropylcellulose) (HPC).
The mark [2] stands for this setting: dose: 12.5 mg/kg/injection, schedule: Q07DX002 (ip), vehicle: Klucel (hydroxypropylcellulose) (HPC).
[3] abbreviates: dose: 50.0 mg/kg/injection, schedule: Q07DX002 (ip), vehicle: Klucel (hydroxypropylcellulose) (HPC).
Setting [4] is: dose: 100.0 mg/kg/injection, schedule: Q07DX002 (ip), vehicle: Klucel (hydroxypropylcellulose) (HPC).
The mark [5] stands for this setting: dose: 200.0 mg/kg/injection, schedule: Q07DX002 (ip), vehicle: Klucel (hydroxypropylcellulose) (HPC).
Where [6] appears, read: dose: 12.5 mg/kg/injection, schedule: Q07DX002 (ip), vehicle: saline with Tween-80.
Setting [7] is: dose: 50.0 mg/kg/injection, schedule: Q07DX002 (ip), vehicle: saline with Tween-80.
Where [8] appears, read: dose: 200.0 mg/kg/injection, schedule: Q07DX002 (ip), vehicle: saline with Tween-80.
[9] abbreviates: dose: 25.0 mg/kg/injection, schedule: Q07DX002 (ip), vehicle: saline.
Where [10] appears, read: dose: 50.0 mg/kg/injection, schedule: Q07DX002 (ip), vehicle: saline.
Where [11] appears, read: dose: 100.0 mg/kg/injection, schedule: Q07DX002 (ip), vehicle: saline.
[12] abbreviates: dose: 200.0 mg/kg/injection, schedule: Q07DX002 (ip), vehicle: saline.
Setting [13] is: dose: 400.0 mg/kg/injection, schedule: Q07DX002 (ip), vehicle: saline.
[14] abbreviates: dose: 100.0 mg/kg/injection, schedule: Q07DX002 (ip), vehicle: saline with Tween-80.
Where [15] appears, read: dose: 25.0 mg/kg/injection, schedule: Q07DX002 (ip), vehicle: saline with Tween-80.

`COC(=O)C(CSC(c1ccccc1)(c1ccccc1)c1ccccc1)NC(=O)C(CC(N)=O)NC(=O)OCc1ccccc1` (stereo not drawn) (Cbz-Asn-Cys(Trt)-OMe; configuration not given here): the T/C (dose: 25.0 mg/kg/injection, schedule: Q07DX002 (ip), vehicle: distilled water + Tween-80) was 95 % of control; the T/C (dose: 50.0 mg/kg/injection, schedule: Q07DX002 (ip), vehicle: distilled water + Tween-80) is 60 % of control; the T/C (dose: 100.0 mg/kg/injection, schedule: Q07DX002 (ip), vehicle: distilled water + Tween-80) is 95 % of control; the T/C (dose: 200.0 mg/kg/injection, schedule: Q07DX002 (ip), vehicle: distilled water + Tween-80) was 84 % of control and 88 % of control; the T/C (dose: 400.0 mg/kg/injection, schedule: Q07DX002 (ip), vehicle: distilled water + Tween-80) was 77 % of control; the T/C (dose: 800.0 mg/kg/injection, schedule: Q07DX002 (ip), vehicle: distilled water + Tween-80) was 56 % of control.

`CNC(=O)OCc1c(COC(=O)NC)c(C)n(-c2ccc(OC)cc2)c1C`: the T/C was 82 % of control under setting [1]; 69 % of control under setting [2]; 111 % of control under setting [3]; 68 % of control and 93 % of control under setting [4]; 49 % of control under setting [5].

For the compound `Cc1nn(CCO)c(C)c1N=[N+]([O-])c1c(C)nn(CCO)c1C`, the T/C was 116 % of control under setting [1]; 102 % of control (dose: 6.25 mg/kg/injection, schedule: Q07DX002 (ip), vehicle: saline with Tween-80); 86 % of control under setting [2]; 98 % of control under setting [6]; 108 % of control and 91 % of control (dose: 25.0 mg/kg/injection, schedule: Q07DX002 (ip), vehicle: Klucel (hydroxypropylcellulose) (HPC)); 100 % of control and 104 % of control under setting [3]. Also, the T/C runs as follows: under setting [7], 86 % of control; under setting [5], 24 % of control; under setting [8], 79 % of control.

On to `c1cc[c]([Sn]([NH]c2ncnc3[nH]cnc23)([NH]c2ncnc3[nH]cnc23)[c]2ccccc2)cc1`, for which the T/C was 51 % of control under setting [9]; 84 % of control under setting [10]; 46 % of control under setting [11]; 81 % of control under setting [12]; 66 % of control under setting [13].

On to `CN(C)P(=O)(Oc1ccccc1)N(C)C`, for which the T/C under setting [7] was 68 % of control, the T/C under setting [14] was 62 % of control and the T/C under setting [8] was 86 % of control.

Take `NC(=O)NO`: the T/C under setting [9] was 99 % of control; the T/C under setting [10] was 69 % of control; the T/C under setting [11] is 99 % of control; the T/C (dose: 100.0 mg/kg/injection, schedule: Q07DX003 (ip), vehicle: saline) is 152 % of control; the T/C under setting [12] is 78 % of control; the T/C (dose: 200.0 mg/kg/injection, schedule: Q07DX003 (ip), vehicle: saline) was 43 % of control and 60 % of control. For the same compound, the T/C was 88 % of control under setting [13] and 39 % of control (dose: 800.0 mg/kg/injection, schedule: Q07DX003 (ip), vehicle: saline).

Consider `C=C1CCOC2(C(O)C(C)(O)CO)NC(=O)C1(O)NC2=O` (stereo not given), for which the T/C runs as follows: (dose: 225.0 mg/kg/injection, schedule: Q07DX002 (ip), vehicle: saline) 104 % of control; (dose: 450.0 mg/kg/injection, schedule: Q07DX002 (ip), vehicle: saline) 74 % of control; (dose: 900.0 mg/kg/injection, schedule: Q07DX002 (ip), vehicle: saline) 81 % of control; (dose: 1800.0 mg/kg/injection, schedule: Q07DX002 (ip), vehicle: saline) 46 % of control.

For the compound `CC(=O)OCC1C(=O)OCC1C(=O)N1Cc2cc3ccccc3nc2C1` (stereo not given), the T/C by setting is: (dose: 4.0 mg/kg/injection, schedule: Q07DX002 (ip), vehicle: saline with Tween-80) 88 % of control; (dose: 8.0 mg/kg/injection, schedule: Q07DX003 (ip), vehicle: saline with Tween-80) 230 % of control; (dose: 16.0 mg/kg/injection, schedule: Q07DX003 (ip), vehicle: saline with Tween-80) 191 % of control; (dose: 32.0 mg/kg/injection, schedule: Q07DX003 (ip), vehicle: saline with Tween-80) 30 % of control; (dose: 64.0 mg/kg/injection, schedule: Q07DX002 (ip), vehicle: saline with Tween-80) 85 % of control and 102 % of control; (dose: 128.0 mg/kg/injection, schedule: Q07DX002 (ip), vehicle: saline with Tween-80) 115 % of control. Also, the T/C (dose: 128.0 mg/kg/injection, schedule: Q07DX003 (ip), vehicle: saline with Tween-80) is 107 % of control.

On to `CC(C)[NH-].CC(C)[NH-].O.O.[Cl][Pt+2][Cl]`, for which the T/C runs as follows: (dose: 3.12 mg/kg/injection, schedule: Q07DX003 (ip), vehicle: dextrose) 90 % of control; (dose: 6.25 mg/kg/injection, schedule: Q07DX002 (ip), vehicle: dextrose) 41 % of control; (dose: 12.5 mg/kg/injection, schedule: Q07DX002 (ip), vehicle: dextrose) 81 % of control; (dose: 25.0 mg/kg/injection, schedule: Q07DX002 (ip), vehicle: dextrose) 39 % of control; (dose: 25.0 mg/kg/injection, schedule: Q07DX003 (ip), vehicle: dextrose) 52 % of control.

As to `N=C1CCCS1`, the T/C under setting [12] is 101 % of control.

On to `COc1cc([C@@H]2c3cc4c(c(O)c3C[C@H]3COC(=O)[C@@H]32)OCO4)cc(OC)c1O`, for which the T/C (dose: 0.5 mg/kg/injection, schedule: Q07DX002 (ip), vehicle: saline) was 78 % of control; the T/C (dose: 1.0 mg/kg/injection, schedule: Q07DX002 (ip), vehicle: saline) is 65 % of control; the T/C (dose: 2.0 mg/kg/injection, schedule: Q07DX002 (ip), vehicle: saline) is 81 % of control; the T/C (dose: 4.0 mg/kg/injection, schedule: Q07DX002 (ip), vehicle: saline) is 123 % of control.

On to `O=CC(O)C(O)C(O)C(O)C(=O)O.[NH-]C1CCCCC1[NH-].[Pt+2]` (stereo not given), for which the T/C (dose: 3.12 mg/kg/injection, schedule: Q07DX002 (ip), vehicle: saline) was 56 % of control; the T/C (dose: 6.25 mg/kg/injection, schedule: Q07DX002 (ip), vehicle: saline) was 23 % of control and 24 % of control and 34 % of control; the T/C (dose: 12.5 mg/kg/injection, schedule: Q07DX002 (ip), vehicle: saline) is 10 % of control and 22 % of control and 34 % of control; the T/C under setting [9] was 12 % of control and 15 % of control.

With `C[Si](C)(C)O/C=C1\CCCCC1=O`, the T/C runs as follows: under setting [7], 73 % of control and 91 % of control; under setting [14], 79 % of control and 100 % of control.

Turning to `c1ccc2sc(SSN3CC4CCC(CC4)C3)nc2c1`, the T/C is 110 % of control and 85 % of control under setting [6]; 82 % of control and 93 % of control under setting [15]; 63 % of control and 64 % of control under setting [14]; 113 % of control and 115 % of control under setting [8].

As for `COC(=O)C12OCC34C(CC5C(C)C6=CC(=O)OC6=CC5(C)C3C(O)C1O)OC(=O)C(OC(C)=O)C24` (stereo not given), the T/C reads like this: (dose: 0.25 mg/kg/injection, schedule: Q07DX002 (ip), vehicle: saline + alcohol) 86 % of control; (dose: 0.5 mg/kg/injection, schedule: Q07DX002 (ip), vehicle: saline + alcohol) 65 % of control; (dose: 1.0 mg/kg/injection, schedule: Q07DX002 (ip), vehicle: saline + alcohol) 96 % of control; (dose: 2.0 mg/kg/injection, schedule: Q07DX002 (ip), vehicle: saline + alcohol) 105 % of control; (dose: 4.0 mg/kg/injection, schedule: Q07DX002 (ip), vehicle: saline + alcohol) 114 % of control.

For `COc1c(CNC(=O)CCl)cc2[nH]c(C)cc2c1CNC(=O)CCl`, the T/C reads like this: under setting [2], 101 % of control; under setting [3], 98 % of control; under setting [4], 93 % of control; under setting [5], 83 % of control; (dose: 400.0 mg/kg/injection, schedule: Q07DX002 (ip), vehicle: Klucel (hydroxypropylcellulose) (HPC)) 111 % of control.

Turning to `CCC1OC(OC)C=CC1=O` (stereo not given), the T/C by setting is: under setting [15], 92 % of control; under setting [7], 73 % of control; under setting [14], 73 % of control.
